Legend:
[1] = system: monocyte-derived DCs (moDCs); type: cell-based, human; conditions: rCD40L 5 µg/mL, 72 h
CD3+ T cells = conditions: cited from earlier work
monocytes = conditions: cited from earlier work

Substance	Differentiation of cells within moDC cultures to CD14neg DC phenotype ([1]; after 7 days GM-CSF/IL-4, Fig. 1a)	Proliferative capacity of moDCs (Ki67 expression) ([1]; Fig. 1b)	Induction of IL-12p70 in isolated CD3+ T cells in absence of DC engagement (CD3+ T cells)	Differentiation of monocytes to CD14neg cells (monocytes)
rCD40L: recombinant CD40 ligand (BioLegend), used at 5 µg/mL	near-total differentiation of cells to the CD14^neg DC phenotype	not associated with a significant change in the proliferative capacity	–	–
RSKAKNPLYR linked to R8 [IK14800]	–	–	contributes to induction of IL-12p70	does not promote differentiation of monocytes to CD14^neg cells

Reference: publication PMC11538426 (Scientific Reports, 2024)
